Data: patent US20250017949A1, “METHODS AND COMPOSITIONS FOR SUPPRESSING AGING-ASSOCIATED CLONAL HEMATOPOIESIS” (The Jackson Laboratory, priority 2021, published 2025)
“Also recorded” adds a separate entry of the source.

Legend:
[1] = system: Dnmt3a^R878H/+ cells; test: Etanercept transplants (pan-TNFα blockade after competitive secondary transplant); format: in vivo, mouse
Source text: FIGS. 7A-7H: TNFR1 is required for Dnmt3a^R878H/+ HSC self-renewal while TNFR2 regulates lymphoid cell production. (FIG. 7A) Schematic of experimental design to test competitive, serial transplant of Mx-Cre control, Dnmt3a^R878H/+(R878H/+), Dnmt3a^R878H/+ Tnfrsf1a^−/− (R878H/+; TNFR1KO) and Dnmt3a^R878H/+ Tnfrsf1b^−/− (R878H/+; TNFR2KO) in aged (>12 mo) recipient mice. (FIG. 7B) Frequency of donor cells in PB (left) and BM (right) of recipient mice at 20 weeks post-secondary transplant. Significance was calculated using Brown-Forsythe and Welch ANOVA with Welch's correction. (FIG. 7C) Representative flow cytometry plots showing B cell and myeloid cell frequencies in donor derived PB. (FIG. 7D) Frequency of B cells (left), T cells (center) and myeloid cells (right) in donor derived PB at 20 weeks post-secondary transplant. Significance was calculated using one-way ANOVA with Tukey's multiple comparisons test. (FIG. 7E) Experimental schematic of transplant experiment with etanercept treatment. (FIG. 7F) Frequency of control or R878H/+ donor cells in PB pre- and post-etanercept treatment. Significance was calculated using two-way ANOVA with Fisher's LSD. (FIG. 7G) Frequency of control or R878H/+ donor cells in BM post-etanercept or vehicle treatment. Significance was calculated using two-way ANOVA with Fisher's LSD. (FIG. 7H) Frequency of HSC, MPP^Mk/E, MPP^G/M, and MPP^Ly populations in control or R878H/+ BM. Significance was calculated using two-way ANOVA with Fisher's LSD. (FIGS. 7B and 7D) Dots represent individual recipient mice, boxes show 25 to 75th percentile, line is median, whiskers show min to max. (FIG. 7F) Dots represent mean across biological replicates (n=4). (FIGS. 7G and 7H) Bars represent mean+/− SEM (n=4). *P<0.05, **P<0.01, ***P<0.001, ****P<0.0001.
TNFα signaling occurs through two distinct TNFα receptors, TNFR1 (Tnfrsf1a) and TNFR2 (Tnfrsf1b). Both TNFR1 and TNFR2 are expressed on HSC and MPP populations and are not altered in surface expression between control and Dnmt3a^R878H/+ mice (data not shown). To determine which of these receptors are responsible for TNFα-mediated selective advantage of Dnmt3a^R878H/+ HSCs and B lymphoid cell production, we crossed Dnmt3a^R878H/+ mice with Tnfrsf1a or Tnfrsf1b knockout mice (data not shown) and tested HSC function by competitive serial BM transplantation into aged recipients (FIG. 7A). […]
1×10^6 BM cells from 2-4-month-old Dnmt3a^+/+ Mx-Cre or Dnmt3a^fl-R878H/+ Mx-Cre donors were competitively transplanted with wild-type CD45.1+ CD45.2+ F1 BM cells in 2-4-month-old CD45.1+ lethally irradiated recipients. […] PB was monitored weekly and at 28 weeks post-transplant, bone marrow was harvested for analysis.

[2] = system: Dnmt3a-mutant HSCs vs wild-type HSCs; test: Mixed HSC culture with or without recombinant OSM, then transplant and engraftment; format: in vivo, mouse; details: then transplant, FIGS. 11B-11C
Source text: (FIG. 11A) Experiment design. Contribution of wild-type (WT F1) and competitor Dnmt3a-mutant (R878H/+) cells to peripheral blood (FIG. 11B) and bone marrow (FIG. 11C) of recipient mice after culture with or without recombinant OSM.
Next, to determine if OSM stimulation has a differential functional effect on Dnmt3a-mutant vs. control HSCs, we established mixed cultures of purified control and Dnmt3a-mutant HSCs in culture conditions that promote HSC self-renewal and expansion. To test HSC function, we transplanted cells at the end of the culture period into recipient mice and measured their engraftment capacity (FIG. 11A). We find that in absence of OSM there is similar or equal engraftment of wild-type and Dnmt3a-mutant competitor cells in recipient mice (FIGS. 11B-11C). […] This finding supports that OSM is a major factor causing clonal hematopoiesis.

[3] = system: STAT5; test: Phosphorylation in HSPCs in response to recombinant OSM stimulation; format: cell-based, mouse; details: recombinant OSM stimulation for 30 minutes; FIG. 10G
Source text: (§1) FIGS. 10A-10G: OSM signaling is increased in Dnmt3a-mutant hematopoietic stem cells (HSCs) in an aged bone marrow microenvironment. (FIG. 10A) Experiment design. (FIG. 10B) Volcano plot of differentially expressed genes between Dnmt3a-mutant (R878H) vs. wild-type (+/+) HSCs in young recipients (left panel) and aged recipients (right panel). […] (FIG. 10C) Ingenuity Pathway Analysis prediction of upstream factors that would produce the differential gene expression pattern observed in aged recipients shown in FIG. 10B. (FIG. 10D) Gene set enrichment analysis of OSM signaling signature in Dnmt3a-mutant (R878H) vs. wild-type (+/+) HSCs specifically in aged recipient mice. (FIG. 10E) OSM levels in bone marrow fluid of young, middle-aged and old C57BL/6 wild-type mice assessed by ELISA. (FIG. 10F) Schematic of OSM-OSMR signaling pathway with differentially expressed genes in Dnmt3a-mutant vs. control HSCs colored in green (increased) or orange (decreased). (FIG. 10G) Phosphorylation of Stat3 (left panel) and Stat5 (right panel) in wild-type or Dnmt3a-mutant HSPCs in response to recombinant OSM stimulation for 30 minutes.
(§2) To determine which factor(s) might be elevated in the aged bone marrow microenvironment that would impact Dnmt3a-mutant HSPCs, donor-derived hematopoietic stem cells (HSCs) were re-isolated from the experiment shown in FIG. 9A (design shown in FIG. 10A). […]

[4] = system: STAT3; test: as above; format: cell-based, mouse; details: recombinant OSM stimulation for 30 minutes; FIG. 10G
Source text: as §1, §2

[5] = system: Dnmt3a-mutant (D3a) hematopoietic stem cells; test: In vivo MitoQ treatment after transplant into aged recipient mice; parameters: species or system mouse; details: in vivo MitoQ vs vehicle (PBS) after transplant into aged recipient mice, FIG. 4
Protocol: Frequency of donor-derived cells produced from wild-type (MxCre) control or Dnmt3a-mutant (D3a) hematopoietic stem cells post-transplantation and in vivo treatment with MitoQ or vehicle (PBS).
(§3) To evaluate the extent to which targeting defects in mitochondrial metabolism might improve wild-type HSC function and thus reduce the selective advantage of Dnmt3a-mutant HSCs, cells were treated with the mitochondrially targeted antioxidant mitoquinol (MitoQ) in vitro and in vivo. […] Treatment with MitoQ or other methods to improve mitochondrial metabolism are attractive targets to consider in the treatment of clonal hematopoiesis and prevention of leukemia.

[6] = system: wild-type MxCre control hematopoietic stem and progenitor cells; test: Myeloid colony formation in media containing MitoQ or vehicle (DMSO); format: cell-based, mouse; details: in vitro, MitoQ vs vehicle (DMSO); FIG. 3
Protocol: (§4) Number of myeloid colonies produced from wild-type MxCre control or Dnmt3a-mutant (D3a) hematopoietic stem and progenitor cells in media containing MitoQ or vehicle (DMSO).
as §3

[7] = system: Dnmt3a-mutant (D3a) hematopoietic stem and progenitor cells; test: as above; format: cell-based, mouse; details: in vitro, MitoQ vs vehicle (DMSO), FIG. 3
Protocol: as §4, §3

[8] = etanercept 25 mg/kg IP twice per week for four weeks vs vehicle, FIG. 7H

## Etanercept
[1]; etanercept 25 mg/kg IP twice per week for four weeks vs vehicle, FIG. 7G
  Frequency of R878H/+ donor cells in BM (BM engraftment): trended toward reduction in BM engraftment
[1]; [8]
  Frequency of Dnmt3a^R878H/+ HSC, MPP^Mk/E and MPP^Ly populations in BM: reduced the frequency
  Frequency of Dnmt3a^R878H/+ myeloid-primed multipotent progenitors MPP^G/M in BM: trend toward increase
[1]; etanercept 25 mg/kg IP twice per week for four weeks, pre- vs post-treatment, FIG. 7F
  Frequency of R878H/+ donor cells in PB (competitive PB advantage): reduced the competitive PB advantage

## OSM: recombinant pro-inflammatory cytokine Oncostatin M used to stimulate HSCs/HSPCs
[2]
  Engraftment of Dnmt3a-mutant vs wild-type cells in peripheral blood and bone marrow of recipient mice: favors growth of Dnmt3a-mutant hematopoietic stem cells (HSCs); also recorded: greater multi-lineage engraftment capacity in recipient mice compared to OSM-treated wild-type HSCs
[2]; listed as recombinant OSM
  Engraftment of Dnmt3a-mutant vs wild-type cells in peripheral blood and bone marrow of recipient mice: entirely favors growth of Dnmt3a-mutant HSCs over wild-type cells
[3]
  Phosphorylation of STAT5 in HSPCs: phosphorylation of STAT5 was not seen
[4]
  Phosphorylation of STAT3 in Dnmt3a-mutant vs control HSPCs: greater phosphorylation of STAT3; also recorded: greater downstream Stat3 phosphorylation compared to control HSCs

## mitoquinol
[5]
  Contribution of Dnmt3a-mutant cells to hematopoiesis (frequency of donor-derived cells): reduced contribution of Dnmt3a-mutant cells to hematopoiesis; also recorded: decreases contribution of Dnmt3a-mutant cells to mature hematopoiesis in vivo
[5]; listed as MitoQ®
  Contribution of Dnmt3a-mutant cells to hematopoiesis (frequency of donor-derived cells): impaired differentiation and mature cell production from Dnmt3a-mutant HSCs
[6]
  Myeloid differentiation of wild-type control cells: did not impact differentiation of wild-type control cells
[7]
  Number of myeloid colonies / progeny produced from Dnmt3a-mutant cells: reduce number of progeny produced from Dnmt3a-mutant cells; also recorded: decreases myeloid differentiation of hematopoietic stem and progenitor cells in vitro
[7]; listed as MitoQ®
  Number of myeloid colonies / progeny produced from Dnmt3a-mutant cells: reduced myeloid differentiation of Dnmt3a-mutant HSCs
